This is an account of results in US20100113436A1, “DISPIRO TETRAOXANE COMPOUNDS AND THEIR USE IN THE TREATMENT OF MALARIA AND/OR CANCER” (priority 2006, published 2010).

As a reminder, the IC50 is the concentration needed to halve the response being measured. The ED50 is the dose at which the effect has come halfway, by size or by number of responders. Lower therefore signals an effect at a small dose. For orientation: solubility means the dissolved amount per volume that the medium holds. Lower therefore signals a poorly soluble substance.

Values after ≈ are worked out from the molar mass of the structure shown. Where two headings read alike, the source gives them in different places.

Data set [1] deals with Plasmodium falciparum DD2. The experiment in a line: In vitro analysis versus strains of Plasmodium falciparum: DD2. The format is cell-based.
Another data set has as its system Plasmodium falciparum K1. Description: In vitro analysis versus strains of Plasmodium falciparum: K1. Type of data set: cell-based. As to conditions: K1 strain.
Data set [2] relates to Plasmodium falciparum GC03. The experiment in a line: In vitro analysis versus strains of Plasmodium falciparum: GC03. Type of data set: cell-based.
Data set [3] deals with Plasmodium falciparum V1S. The experiment in a line: microbe, parasite or virus in culture. Type of data set: cell-based.
In data set [4] the test system is Plasmodium falciparum HB3. Description: In vitro analysis versus strains of Plasmodium falciparum: HB3. Type of data set: cell-based.
Data set [5] deals with Plasmodium falciparum PH3. Description: In vitro analysis versus strains of Plasmodium falciparum: PH3. The format is cell-based.
Data set [6] deals with Plasmodium falciparum TM4. The experiment in a line: In vitro analysis versus strains of Plasmodium falciparum: TM4. Type of data set: cell-based.
Data set [7] concerns 3D7 strain of Plasmodium falciparum. The experiment in a line: In vitro antimalarial activity, 48-h [3H]-hypoxanthine incorporation assay. Type of data set: cell-based. Here is the method:
The 3D7 strain of Plasmodium falciparum was used in this study. This strain is known to be […] Parasites were maintained in continuous culture using the method of Jensen and Trager^4. […] Stock drug solutions were prepared in 100% dimethylsulphoxide (DMSO) and diluted to the appropriate concentration using complete medium. Assays were performed in sterile 96-well microlitre plates, each plate contained 200 μl of parasite culture (2% parasitemia, 0.5% haematocrit) with or without 10 μl drug dilutions. Each drug was tested in triplicate and parasite growth compared to control wells (which constituted 100% parasite growth). […] IC50 values were calculated by interpolation of the probit transformation of the log dose-response curve.

Data set [8] concerns P. berghei ANKA. Description: In vivo dose response screening against P. berghei ANKA. Details: species or system mice. Conditions: Plasmodium berghei; P. berghei ANKA infected mice; Table 9. On the procedure: Compound 29c, 29h and 291 were then subjected to dose response experiment against the P. berghei ANKA and the results are summarized in Table 7 below.
Data set [9] concerns HepG2 Human hepatocyte carcinoma. The experiment in a line: Cellular cytotoxicity screen, Resazurin reduction. Type of data set: cell-based. Conditions: Hep2G. The source says:
(§1) Values represent Tox 50 in μM. Cytotoxicity measured by Resazurin reduction.
(§2) Single full dose response curves generated using 10 independent drug concentrations. The 100 therapeutic index (TI) is the ration of the TOX 50 to the IC50 for the specific compound against the 3D7 P. falciparum isolate. The primary hepatocytes have demonstrable drug metabolising activity. The tetraoxane derivatives are remarkably non-toxic in these screens with in vitro TIs of between 5000 to 17000!.
(In general: Alamar Blue is a resazurin reagent that responds to reducing activity.)

For data set [10], the system named is H9c2(2-1) Myocardium, heart. Description: Cellular cytotoxicity screen, Resazurin reduction. The format is cell-based, rat. Conditions: H9c(2-1).
Description: as §1, §2

Data set [11] deals with L6 Sketal muscle myoblast. Description: Cellular cytotoxicity screen, Resazurin reduction. The format is cell-based, rat.
Description: as §1, §2

The test system of data set [12] is MRC-5 Embryonal lung, diploid. The experiment in a line: Cellular cytotoxicity screen, Resazurin reduction. The format is cell-based, Human.
Description: as §1, §2

Another data set deals with Vero Kidney. Description: Cellular cytotoxicity screen, Resazurin reduction. Type of data set: cell-based, African green monkey, Cercopithecus aethiops.
Description: as §1, §2

In data set [13] the test system is Salmonella typhimurium NM2009. The experiment in a line: Salmonella typhimurium SOS/umu genotoxicity assay. The source says:
(§3) This assay is based on the ability of DNA damaging agents to induce the expression of the umu operon. The Salmonella strains have a plasmid pSK1002 which carries an umuC-lacZ fused gene that produces a hybrid protein with β-galactosidase activity and whose expression is controlled by the umu regulatory region.

The test system of data set [14] is Salmonella typhimurium TA1535/pSK1002. The experiment in a line: Salmonella typhimurium SOS/umu genotoxicity assay.
Description: as §3

Data set [15] concerns P. berghei ANKA. Description: In vivo dose response screening against P. berghei ANKA. As to conditions: P. berghei ANKA infected mice; Table 9; sigmoidal curve calculation.
Data set [16] can be described thus: Timed iron degradation stability, FeBr2 in THF. The format is physicochemical. Conditions: ferrous bromide/THF. The source says:
The resulting residue was purified by flash column chromatography and the % recovery of starting endoperoxide calculated (Table 15).

Data set [17] is described as follows: Stability to other iron salts (FeSO4•7H2O, FeCl2•4H2O). Type of data set: physicochemical. Conditions: further iron salts.
Setting [18] is: ratio TOX 50 to IC50 against 3D7 P. falciparum.

In the case of `CCN(CC)Cc1cc(Nc2ccnc3cc(Cl)ccc23)ccc1O` [AM, Amodiaquine, reference compound], the half-inhibitory concentration (IC50) in [1] (DD2 strain, read-out: IC50) is 6.1 nM; in the data set on Plasmodium falciparum K1 it was 10.2 nM; in data set [2] (GC03 strain, read-out: IC50), 4.5 nM; in data set [3] it was 7.7 nM; in data set [4] (HB3 strain, read-out: IC50), 5.9 nM; in data set [5] (PH3 strain, read-out: IC50) it was 4.7 nM. Further, the IC50 in data set [6] (TM4 strain, read-out: IC50) amounted to 6.4 nM.
Regarding `CCN(CC)CCCC(C)Nc1ccnc2cc(Cl)ccc12` (stereo not shown) [Chloroquine, reference compound], the IC50 in data set [7] (3D7, read-out: Mean IC50) turned out to be 8.5 nM; in data set [1] (DD2), 80.5 nM; in data set [2] it was 8.1 nM; in data set [3], 83.7 nM; in [4] (HB3), 6.6 nM; in data set [5] it was 72 nM. Also, inhibition in data set [6] was half-maximal at 91.3 nM (IC50).
For the compound `CCS(=O)(=O)N1CCC2(CC1)OOC1(OO2)C2CC3CC(C2)CC1C3` [Tetraoxane 39b], the IC50 in [7] (3D7, read-out: Mean IC50) came out at 5.55 nM; in data set [1] (DD2 strain, read-out: IC50), 3 nM; in the data set on Plasmodium falciparum K1, 3 nM; in data set [2] (GC03 strain, read-out: IC50) it was 3 nM; in data set [3], 2.7 nM; in data set [4] (HB3 strain, read-out: IC50) it was 3.8 nM. The IC50 was 1.9 nM in data set [5] (PH3 strain, read-out: IC50) and 2.4 nM in data set [6] (TM4 strain, read-out: IC50). In the data set on P. berghei ANKA [8], this compound returned an ED50 of 6.61 mg/kg. Also, the “Tox 50” value in data set [9] is over 50 µM; in data set [10] it was over 50 µM; in [11] it was 31 µM; in data set [12], over 50 µM; in the data set on Vero Kidney, over 50 µM. The “Theraputic Index (TI)” value in data set [9] (setting [18]) is over 9090; in data set [10] (setting [18]), over 9090; in data set [11] (setting [18]) it was 5636; in data set [12] (setting [18]) it was over 9090; in the data set with Vero Kidney (setting [18]), over 9090. In addition, the “MCE NM2009 (Maximum Co w/o effects on bacteria growth or beta-galactosidase production)” value in [13] (Salmonella typhimurium) was determined as 50 µM. Besides, the “Max. Fold Increase” value in [13] (−S9) is on record as 1.07 ± 0.03 fold; in data set [14] (−S9), 1.03 ± 0.07 fold. For the same compound, the Potential genotox entry in [13] (−S9) and in [14] (−S9) was “NEG” each time. In data set [14] (Salmonella typhimurium), the “MCE TA1535 (Maximum Co w/o effects on bacteria growth or β-galactosidase production)” value was found to be 50 µM. In data set [14] (both strains TA1535/pSK1002 and NM2009, highest concentration tested 50 μM, absence and presence of S-9 mix), the “genotoxicity result in SOS/umu assay” value is reported as “Negative”. Besides, in the data set with P. berghei ANKA [15], the ED90 was 35.48 mg/kg. The solubility in the data set “physchem” is 50 µM (≈ 18.7 µg/mL).
`O=S(=O)(c1ccccc1)N1CCC2(CC1)OOC1(OO2)C2CC3CC(C2)CC1C3` [Tetraoxane 39f]: the 50% inhibitory concentration (IC50) in [7] (3D7, sulfonamide dispiro 1,2,4,5-tetraoxanes, Table 8, read-out: Mean IC50) was 8.1 nM. The same compound registered a degradation in [16] (after 4 h) of 10%. The same compound had a turnover in data set [16] (after 48 h) of 31%. The “degradation by iron salts known to degrade artemisinin and arteflene” value in data set [17] is “ineffective at degrading”.
